Holding throughout (type): in vivo
Assay [1] concerns Stellaria. Nature of the assay: Post-emergent herbicidal action (contact herbicide). The arrangement: key: 1=complete damage; 9=no action; Ratings of 1 to 4 (in particular 1 to 3) mean a good to very good herbicidal action. Particulars: 2000 g of active substance/ha, sprayed in the 4- to 6-leaf stage, evaluated after about 18 days, ratings scale 1-9. As for the experimental part: (§1) Monocotyledon and dicotyledon test plants are grown in plastic pots with standard soil in a greenhouse and, in the 4- to 6-leaf stage, are sprayed with an aqueous suspension of the test substances of the formula 1, prepared from a 25% wettable power (Example F3, b)), corresponding to a dosage of 2000 g of active substance/ha (500 l of water/ha). The test plants are then grown further in the greenhouse under optimum conditions. After a test period of about 18 days, the test is evaluated with a ratings scale of 9 levels (1=complete damage, 9=no action). Ratings of 1 to 4 (in particular 1 to 3) mean a good to very good herbicidal action.
(§2) Test plants: Sinapis, Stellaria

The test system of assay [2] is Sinapis. The description is as above. The arrangement: key: 1=complete damage; 9=no action; Ratings of 1 to 4 (in particular 1 to 3) mean a good to very good herbicidal action. The settings on record: 2000 g of active substance/ha, sprayed in the 4- to 6-leaf stage, evaluated after about 18 days, ratings scale 1-9. On the procedure:
as §1, §2

The next assay relates to Avena. Nature of the assay: Herbicidal action before emergence of the plants (pre-emergent action). The settings on record: 2000 g of active substance/ha, sprayed immediately after sowing, evaluated after 3 weeks, ratings scale of nine levels (1=complete damage, 9=no action). On the procedure: (§3) Monocotyledon and dicotyledon test plants are sown in standard soil in plastic pots. Immediately after sowing, the test substances are sprayed on (500 l of water/ha) in an aqueous suspension prepared from a 25% wettable powder (Example F3, b)), corresponding to a dosage of 2000 g of active substance/ha. The test plants are then grown under optimum conditions in a greenhouse. After a test period of 3 weeks, the test is evaluated with a ratings scale of nine levels (1=complete damage, 9=no action). Ratings of 1 to 4 (in particular 1 to 3) mean a good to very good herbicidal action.
(§4) Test plants: Avena, Setaria, Sinapis, Stellaria

The test system of assay [3] is Stellaria. The assay is described as above. The arrangement: key: 1=complete damage; 9=no action; Ratings of 1 to 4 (in particular 1 to 3) mean a good to very good herbicidal action. Particulars: 2000 g of active substance/ha, sprayed immediately after sowing, evaluated after 3 weeks, ratings scale of nine levels. On the procedure: as §3, §4
In the next assay the test system is Setaria. The assay is described as above. The arrangement: key: 1=complete damage; 9=no action; Ratings of 1 to 4 (in particular 1 to 3) mean a good to very good herbicidal action. Particulars: 2000 g of active substance/ha, sprayed immediately after sowing, evaluated after 3 weeks, ratings scale of nine levels. As for the experimental part: as §3, §4
Assay [4] concerns Sinapis. The assay is described as above. The arrangement: key: 1=complete damage; 9=no action; Ratings of 1 to 4 (in particular 1 to 3) mean a good to very good herbicidal action. The settings on record: 2000 g of active substance/ha, sprayed immediately after sowing, evaluated after 3 weeks, ratings scale of nine levels. As for the experimental part:
as §3, §4

Molecules are shown by their SMILES.

On to `NC1=NC(Oc2c(F)c(F)c(F)c(F)c2F)=NS(NC2CCCCC2)=N1` (stereo not drawn) [6.17], for which, in the assay with Stellaria [1], the “Post-emergent action, rating, Stellaria” value is 4. Also, the “Post-emergent action, rating, Sinapis” value with Sinapis [2] is recorded as 3.
With `CCCN(CCC)S1=NC(N)=NC(Oc2c(F)c(F)c(F)c(F)c2F)=N1` (stereo not drawn) [6.21], the “Post-emergent action, rating, Stellaria” value with Stellaria [1] was determined as 4. The “Post-emergent action, rating, Sinapis” value with Sinapis [2] amounted to 2.
Turning to `CC1CC(C)CN(S2=NC(N)=NC(Oc3cc(F)ccc3F)=N2)C1` (stereo not drawn) [6.23], the “Post-emergent action, rating, Stellaria” value in the assay with Stellaria [1] is 4. Also, in the assay with Sinapis [2], the “Post-emergent action, rating, Sinapis” value is 2.
Take `NC1=NC(Oc2c(F)c(F)c(F)c(F)c2F)=NS(N2CCCCC2)=N1` (stereo not drawn) [6.53, 3-amino-5-pentafluorophenoxy-1-(piperidin-1-yl)thiatriazine]: the “Pre-emergent action, rating, Avena” value with Avena was determined as 3. Further, the “Pre-emergent action, rating, Stellaria” value in the assay with Stellaria [3] is 1. Besides, in the assay on Setaria, the “Pre-emergent action, rating, Setaria” value stood at 3. Besides, the “Pre-emergent action, rating, Sinapis” value in the assay with Sinapis [4] worked out at 1.
As for `NC1=NC(Oc2cc(F)ccc2F)=NS(N2CCCCCC2)=N1` (stereo not drawn) [6.57], in the assay with Stellaria [1], the “Post-emergent action, rating, Stellaria” value came out at 4. Moreover, in the assay on Sinapis [2], the “Post-emergent action, rating, Sinapis” value is listed as 2.
Turning to `CC1CCC(C)N1S1=NC(N)=NC(Oc2c(F)c(F)c(F)c(F)c2F)=N1` (stereo not drawn) [6.63], in the assay with Avena, the “Pre-emergent action, rating, Avena” value is 4. Further, in the assay with Stellaria [3], the “Pre-emergent action, rating, Stellaria” value is 1. For the same molecule, the “Pre-emergent action, rating, Setaria” value with Setaria was 3. Further, in the assay on Sinapis [4], the “Pre-emergent action, rating, Sinapis” value stood at 1.
As to `NC1=NC(Oc2c(F)c(F)c(F)c(F)c2F)=NS(N2CCN(c3ccccc3)CC2)=N1` (stereo not drawn) [6.77], in the assay with Avena, the “Pre-emergent action, rating, Avena” value is reported as 4. Further, in the assay on Stellaria [3], the “Pre-emergent action, rating, Stellaria” value was 1. For the same molecule, the “Pre-emergent action, rating, Setaria” value with Setaria is 3. For the same molecule, in the assay on Sinapis [4], the “Pre-emergent action, rating, Sinapis” value is on record as 1.
As to `NC1=NS(N2CC3CCC(CC3)C2)=NC(Oc2cc(F)ccc2F)=N1` (stereo not drawn) [6.81], in the assay with Stellaria [1], the “Post-emergent action, rating, Stellaria” value stood at 3. Also, the “Post-emergent action, rating, Sinapis” value with Sinapis [2] was determined as 2.
The matching figures for `CC1N(S2=NC(N)=NC(Oc3c(F)c(F)c(F)c(F)c3F)=N2)CCCC1(C)C` (stereo not drawn) [6.90]: 4 and 2.
The matching figures for `NC1=NC(Oc2c(F)c(F)c(F)c(F)c2F)=NS(N2CCCC3CCCCCCC32)=N1` (stereo not drawn) [6.102]: 3 and 2.
Take `NC1=NC(Oc2cc(F)ccc2F)=NS(N2CCc3ccccc3CC2)=N1` (stereo not drawn) [6.164]: the “Post-emergent action, rating, Stellaria” value in the assay on Stellaria [1] is 3. For the same molecule, the “Post-emergent action, rating, Sinapis” value in the assay on Sinapis [2] is 1.
The matching figures for `CC1CC(NS2=NC(N)=NC(Oc3c(F)c(F)c(F)c(F)c3F)=N2)CC(C)(C)C1` (stereo not drawn) [6.168]: 3 and 2.
The matching figures for `NC1=NS(N2CCCCCCCCCCCC2)=NC(Oc2c(F)c(F)c(F)c(F)c2F)=N1` (stereo not drawn) [6.177]: 2 and 2.
On to `CC12CCCCC1N(S1=NC(N)=NC(Oc3c(F)c(F)c(F)c(F)c3F)=N1)CCC2` (stereo not drawn) [6.181], for which the “Post-emergent action, rating, Stellaria” value in the assay on Stellaria [1] stood at 3. Further, in the assay on Sinapis [2], the “Post-emergent action, rating, Sinapis” value is on record as 2.
On the same counts, the results for `CC(C)N(C(C)C)S1=NC(Oc2c(F)c(F)c(F)c(F)c2F)=NC(N)=N1` (stereo not drawn) [6.247] are 4 and 3.
The matching figures for `CC1CCN(S2=NC(Oc3cc(F)ccc3F)=NC(N)=N2)CC(C)(C)C1` (stereo not drawn) [6.249]: 2 and 1.
The matching figures for `NC1=NS(N2CCC3CCCCC3CC2)=NC(Oc2c(F)c(F)c(F)c(F)c2F)=N1` (stereo not drawn) [6.283]: 4 and 1.
`NC1=NS(N2CCCCCCCCCC2)=NC(Oc2c(F)c(F)cc(F)c2F)=N1` (stereo not drawn) [6.320]: the “Post-emergent action, rating, Stellaria” value in the assay on Stellaria [1] is 3. Also, in the assay on Sinapis [2], the “Post-emergent action, rating, Sinapis” value came to 2.

For the origin of these results see US6362134B1, “Herbicidal 1,2,4,6-thiatriazines” (Syngenta Investment Corporation, priority 1996, dated 2002).
